Experimental data as given in patent US20080287543A1, “Pharmaceutical composition comprising 5-methyl-2 (2'-chloro-6'-fluoroanillino) phen ylacetic acid” (priority 2003, published 2008).

Legend:
Assay type in all cases: physicochemical
Solubility in water = assay: Solubility in water
Text: (§1) Thus, the ability to produce a shelf-stable parenteral formulation is unexpected.

[1] = Stability in 100% propylene glycol (PG) solution; conditions: 50° C., in the dark, after 4 weeks
Text: as §1

[2] = Stability in 100% polyethylene glycol (PEG) 400 solution; conditions: 100% PEG 400, 50° C., in the dark, after 4 weeks
Text: as §1

SMILES | solubility in water (Solubility in water) | degradation in a solution of 100% PG [1] [%] | degradation in a solution of 100% PEG 400 [2] [%]
Cc1ccc(Nc2c(F)cccc2Cl)c(CC(=O)O)c1 [5-methyl-2-(2′-chloro-6′-fluoroanilino)phenylacetic acid] | relatively insoluble |  | 
Cc1ccc(Nc2c(F)cccc2Cl)c(CC(=O)[O-])c1.[K+] [Potassium salt of 5-methyl-2-(2′-chloro-6′-fluoroanilino)phenylacetic acid] |  | 7 | 5
